# Measured values published in patent US5209930A, “Preparation and use of N-iodopropargyl oxycarbonyl amino acid esters and derivatives as antimicrobial agents” (Rohm and Haas Company, priority 1990, dated 1993).
# Experiments:
# Experiment in all cases: MIC, broth two-fold serial dilution test
# [1] = test system: Staphylococcus aureus (SAUR); assay type: cell-based, gram positive, ATCC 6538; conditions: Staphylococcus aureus (G+); M9G (minimal salts media with glucose); read-out: minimum inhibitory concentration (MIC), SAUR
# Procedure: (§1) Biocidal evaluations (bactericidal, algicidal, and fungicidal) were carried out.
# (§2) A minimum inhibitory concentration (MIC) value is obtained using a broth, two-fold serial dilution test performed as follows: A stock solution or dispersion of the test compound, typically at a concentration of 1%, is made in a 5:3:2 solvent solution of acetone, methanol, and water. A volume of the stock solution is dispensed into culture media to give an initial starting test concentration of 500 ppm compound.
# (§3) When the test is ready to be done, each vessel in the dilution series, except the first vessel, contains an equal volume of compound free broth. The first vessel contains twice the volume of broth with the starting concentration of test compound. One half of the broth from the first vessel is transferred to the second vessel. After being mixed, one half the resulting volume is removed from the second vessel and transferred to the third vessel. The entire cycle is repeated sufficiently to give a series of concentrations amounting to 500, 250, 125, 63, 31, 16, 8, and 4 ppm (or 100, 50, 25, 12.5, 6.2, 3.1, 1.6, and 0.8), respectively.
# (§4) Each vessel is then inoculated with a cell suspension of the appropriate test organism. Bacteria are grown in broth, fungi on agar slants for a time and at a temperature appropriate to the species being tested, and algae are a mixture of green algae and blue-green bacteria grown in a nutrient media. At the end of the growth period, in the case of bacteria, the broth is vortexed to disperse the cells.
# (§5) The vessels are then incubated at the appropriate temperature. After the incubation, the vessels are examined for growth/no growth. The minimum inhibitory concentration (MIC) is defined as the lowest concentration of compound that results in complete inhibition of growth of the test organism.
# Staphylococcus aureus (SAUR), gram positive
# (§6) These compounds were tested in M9G
# (§7) (minimal salts media with glucose)
# 2. Staphylococcus aureus (+)
# Aspergillus niger (ANIG) = assay type: cell-based, ATCC 6275; conditions: Aspergillus niger (F); M9G (minimal salts media with glucose); read-out: minimum inhibitory concentration (MIC), ANIG
# Procedure: as §1, §2, §3, §4
# (§8) In the case of fungi, the spores are harvested by pipetting water onto the slant and dislodging the spores with a sterile loop. The cell/spore suspension is standardized by controlling incubation time, temperature, and the volume of the diluent. The suspension is then used to inoculate the vessels containing the broth compound.
# as §5, §6, §7
# Escherichia coli (ECOL) = assay type: cell-based, gram negative, ATCC 11229; conditions: Escherichia coli (G-); M9G (minimal salts media with glucose); read-out: minimum inhibitory concentration (MIC), ECOL
# Procedure: as §1, §2, §3, §4, §5
# Escherichia coli (ECOL), gram negative
# as §6, §7
# [2] = test system: Pseudomonas fluorescens (PSFL); assay type: cell-based, gram negative, ATCC 948; conditions: Pseudomonas fluorescens (G-); M9G (minimal salts media with glucose); read-out: minimum inhibitory concentration (MIC), PSFL
# Procedure: as §1, §2, §3, §4, §5
# Pseudomonas fluorescens (PSFL), gram negative
# as §6, §7
# 4. Pseudomonas fluorescens (-)
# [3] = test system: Pseudomonas aerugenosa (PSAE); assay type: cell-based, gram negative, ATCC 15442; conditions: Pseudomonas aeruginosa (G-); M9G (minimal salts media with glucose); read-out: minimum inhibitory concentration (MIC), PSAE
# Procedure: as §1, §2, §3, §4, §5
# Pseudomonas aerugenosa (PSAE), gram negative
# as §6, §7
# 1. Pseudomonas aeruginosa (-)
# [4] = test system: Aureobasidium pullulans (APUL); assay type: cell-based, ATCC 9348; conditions: Aureobasidium pullulans (F); M9G (minimal salts media with glucose); read-out: minimum inhibitory concentration (MIC), APUL
# Procedure: as §1, §2, §3, §4, §8, §5
# Aureobasidium pullulans (APUL)
# as §6, §7
# 6. Aureobasidium pullulans
# ALGAE = assay type: cell-based, mixture of green algae and blue-green bacteria; conditions: green algae and blue-green bacteria; culture in Allen's medium; read-out: minimum inhibitory concentration (MIC), ALGAE
# Procedure: as §1, §2, §3
# Each vessel is then inoculated with a cell suspension of the appropriate test organism. […]
smiles,measurement,setting,value
"O=C(O)CNC(=O)OCC#CI [Compound 1, N-iodopropargyloxycarbonyl glycine]",MIC,[1],250 µg/mL
same,MIC,Aspergillus niger (ANIG),> 500 µg/mL
same,MIC,Escherichia coli (ECOL),250 µg/mL
same,MIC,[2],250 µg/mL
same,MIC,[3],> 500 µg/mL
same,MIC,[4],> 500 µg/mL
"COC(=O)CNC(=O)OCC#CI [Compound 2, N-iodopropargyloxycarbonyl glycine methyl ester]",MIC,[1],16 µg/mL
same,MIC,Aspergillus niger (ANIG),< 4 µg/mL
same,MIC,Escherichia coli (ECOL),32 µg/mL
same,MIC,[2],16 µg/mL
same,MIC,[3],32 µg/mL
same,MIC,[4],< 4 µg/mL
"CCCCCCCCOC(=O)CNC(=O)OCC#CI [Compound 3, N-Iodopropargyloxycarbonyl glycine n-octyl ester]",MIC,[1],8 µg/mL
same,MIC,Aspergillus niger (ANIG),< 4 µg/mL
same,MIC,Escherichia coli (ECOL),> 500 µg/mL
same,MIC,[2],8 µg/mL
same,MIC,[3],> 500 µg/mL
same,MIC,[4],< 4 µg/mL
"O=C(CNC(=O)OCC#CI)OCC#CI [Compound 4, N-iodopropargyloxycarbonyl glycine iodopropargyl ester]",MIC,[1],32 µg/mL
same,MIC,Aspergillus niger (ANIG),< 0.12 µg/mL
same,MIC,Escherichia coli (ECOL),125 µg/mL
same,MIC,[2],32 µg/mL
same,MIC,[3],125 µg/mL
same,MIC,[4],< 0.12 µg/mL
same,MIC,ALGAE,12.5 µg/mL
"C[C@H](NC(=O)OCC#CI)C(=O)O [Compound 5, N-iodopropargyloxycarbonyl alanine]",MIC,[1],250 µg/mL
same,MIC,Aspergillus niger (ANIG),125 µg/mL
same,MIC,Escherichia coli (ECOL),125 µg/mL
same,MIC,[2],125 µg/mL
same,MIC,[3],> 500 µg/mL
same,MIC,[4],32 µg/mL
"COC(=O)[C@H](C)NC(=O)OCC#CI [Compound 6, N-iodopropargyloxycarbonyl alanine methyl ester]",MIC,[1],16 µg/mL
same,MIC,Aspergillus niger (ANIG),< 4 µg/mL
same,MIC,Escherichia coli (ECOL),< 4 µg/mL
same,MIC,[2],< 4 µg/mL
same,MIC,[3],32 µg/mL
same,MIC,[4],< 4 µg/mL
"CCCCCCCCOC(=O)[C@H](C)NC(=O)OCC#CI [Compound 7, N-iodopropargyloxycarbonyl alanine n-octyl ester]",MIC,[1],63 µg/mL
same,MIC,Aspergillus niger (ANIG),< 4 µg/mL
same,MIC,Escherichia coli (ECOL),< 4 µg/mL
same,MIC,[2],8 µg/mL
same,MIC,[3],125 µg/mL
same,MIC,[4],< 63 µg/mL
"O=C(N[C@@H](Cc1ccccc1)C(=O)O)OCC#CI [Compound 8, N-iodopropargyloxycarbonyl phenylalanine]",MIC,[1],125 µg/mL
same,MIC,Aspergillus niger (ANIG),250 µg/mL
same,MIC,Escherichia coli (ECOL),< 4 µg/mL
same,MIC,[2],63 µg/mL
same,MIC,[3],250 µg/mL
same,MIC,[4],250 µg/mL
"COC(=O)[C@H](Cc1ccccc1)NC(=O)OCC#CI [Compound 9, N-iodopropargyloxycarbonyl phenylalanine methyl ester]",MIC,[1],125 µg/mL
same,MIC,Aspergillus niger (ANIG),< 4 µg/mL
same,MIC,Escherichia coli (ECOL),> 500 µg/mL
same,MIC,[2],125 µg/mL
same,MIC,[3],> 500 µg/mL
same,MIC,[4],< 4 µg/mL
"CCCCCCCCOC(=O)[C@H](Cc1ccccc1)NC(=O)OCC#CI [Compound 10, N-iodopropargyloxycarbonyl phenylalanine n-octyl ester]",MIC,[1],32 µg/mL
same,MIC,Aspergillus niger (ANIG),125 µg/mL
same,MIC,Escherichia coli (ECOL),< 4 µg/mL
same,MIC,[2],32 µg/mL
same,MIC,[3],63 µg/mL
same,MIC,[4],125 µg/mL
